# Legend:
# [1] = biological target: T1, mutEGFR (D770_N771insSVD) (Homo sapiens, UniProt P00533, DUP768-770); assay: Exon20-Mutant-EGFR (D770_N771insSVD) kinase assay (TR-FRET); type: biochemical
# T1 construct: GST-EGFR #3 (SVD between D770 and N771); made in house; host or cells: Sf9 insect cells (baculovirus)
# [2] = biological target: T2, mutEGFR (D770_N771insNPG, T790) (Homo sapiens, UniProt P00533, INS770NPG/T790M); assay: mutEGFR (D770_N771insNPG, T790) kinase assay; type: biochemical
# T2 construct: exact insNPG construct not described; in-house EGFR proteins were N-terminal GST fusions from baculovirus/insect cells (borders R669-A1210 given only for WT, insSVD, insASV)
# Source text: The different EGFR proteins used in the biochemical kinase activity inhibition assays were generated inhouse by expression in insect cells using Baculo Virus system and subsequent purification as described in the following paragraphs.
# The cDNAs encoding the various protein sequences from human EGFR human (P00533) were optimized for expression in eukaryotic cells and synthesized by the GeneArt Technology at Life Technologies.
# BA/F3 (insSVD) cells = assay: Ba/F3-EGFR-insSVD cell survival assay (Cell Titer-Glo); type: cell-based
# In short: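 Ba/F3 cells stably expressing retroviral EGFR-insSVD or insSVD T790M, grown without IL-3 on 10 ng/ml EGF, 4000 cells/well. Compound pinned in, 48 h at 37° C. Viability by CellTiter-Glo luminescence.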
# [3] = tested on: BA/F3 (EGFR D770_N771 insSVD T790M) cells; assay: Ba/F3-EGFR-insSVD T790M cell survival assay (Cell Titer-Glo); type: cell-based; conditions: Ba/F3 EGFR-D770-N771ins_SVD, 48 h
# Protocol: Cellular Data Description (WT, insSVD, insSVD T790M) 293T cells from ATCC were transfected with pBABEpuro expression constructs for WT EGFR or EGFR-insSVD, or EGFR-insSVD T790M, and pCL-Eco packaging vector using Fugene-6 transfection reagent from Promega. Plates were incubated at 37° C. for 48 h. Retrovirus was harvested by filtering the media supernatant through a 0.45 μm filter.
# Ba/F3 cells purchased from DSMZ were grown in RPMI+10% FBS+10 ng/ml IL-3 and infected with filtered retroviral supernatant at a 1:2 dilution. Polybrene was added to a concentration of 8 μg/mL, plates were spun for 90 min, and incubated for 16 h at 37° C. 2 μg/mL puromycin was added to the infected cells 24 h after infection and cells were continually grown in the presence of puromycin and 10 ng/ml IL-3. Following stably expressing Ba/F3 cell lines were generated: Ba/F3-EGFR-WT, Ba/F3-EGFR-insSVD, Ba/F3-EGFR-insSVD T790M, (Ba/F3-vector-control).
# For cell survival assays, Ba/F3 cells were grown to a density of 1-2 million cells per mL, spun down and resuspended in media without IL-3, and replated at a concentration of 200,000-500,000 cells per mL. The cells ectopically expressing WT EGFR, EGFR-insSVD, or EGFR-insSVD T790M were plated with 10 ng/ml Millipore Culture grade EGF. The cells ectopically expressing pBABEpuro empty vector were plated with 10 ng/mL IL-3.
# 2 days later, cells were plated in 50 µL in a 384 well plate at a concentration of 4000 cells per well for cells assayed in the absence of IL-3 and 2000 cells per well for cells assayed in the presence of IL-3. 100 nL of compound was added to each well using a 100 nL pin head, and plates were incubated at 37° C. for 48 h.
# Cell viability was measured by adding 20 μL of Cell Titer-Glo Luminescent Cell Viability Reagent diluted 1:3 in PBS. Plates were sealed with Perkin Elmer Top-Seal, inverted several times to mix, and immediately centrifuged at 1000 rpm for 2 min. Plates were incubated in low light conditions for 8-10 min and luminescence was measured.
# [4] = mutEGFR (D770_N771insSVD) kinase assay IC50, Table 2a, D770_N771insSVD, 2 mM ATP
# [5] = Mus musculus, BaF3, 48 h, Table 3a, cell survival, Cell Titer-Glo, with 10 ng/ml EGF, without IL-3
# [6] = Table 3a, cell survival, Cell Titer-Glo, with 10 ng/ml EGF, without IL-3
# [7] = mutEGFR (D770_N771insSVD) kinase assay IC50, Table 2b (from US Priority Patent Application), mutEGFR D770_N771insSVD
# [8] = Table 2b (from US Priority Patent Application), mutEGFR D770_N771insNPG
# [9] = Mus musculus, BaF3, 48 h, Table 3b, Ba/F3 EGFR-insSVD
# [10] = Table 3b, Ba/F3 EGFR-insSVD T790M
# [11] = Table 3a, cell survival, Cell Titer-Glo, with 10 ng/ml EGF, without IL-3, 48 h
# T2 sequence (P00533 with tags, fused parts or gaps INS770NPG/T790M limits assumed): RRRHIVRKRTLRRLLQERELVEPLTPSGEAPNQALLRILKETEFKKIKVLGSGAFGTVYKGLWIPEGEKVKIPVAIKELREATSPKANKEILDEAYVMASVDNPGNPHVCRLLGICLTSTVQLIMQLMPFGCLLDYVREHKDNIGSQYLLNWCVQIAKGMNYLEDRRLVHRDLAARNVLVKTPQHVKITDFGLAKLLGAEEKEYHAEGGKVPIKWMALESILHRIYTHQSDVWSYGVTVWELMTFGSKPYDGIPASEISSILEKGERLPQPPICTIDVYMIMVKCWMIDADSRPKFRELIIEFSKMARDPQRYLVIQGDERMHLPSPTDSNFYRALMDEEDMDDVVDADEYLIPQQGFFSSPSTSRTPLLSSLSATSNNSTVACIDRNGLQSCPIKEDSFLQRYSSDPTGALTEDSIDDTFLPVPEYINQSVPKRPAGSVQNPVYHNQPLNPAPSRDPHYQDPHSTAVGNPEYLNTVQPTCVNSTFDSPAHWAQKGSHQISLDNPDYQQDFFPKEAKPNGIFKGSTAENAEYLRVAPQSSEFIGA
# T1 sequence (P00533 with tags, fused parts or gaps DUP768-770): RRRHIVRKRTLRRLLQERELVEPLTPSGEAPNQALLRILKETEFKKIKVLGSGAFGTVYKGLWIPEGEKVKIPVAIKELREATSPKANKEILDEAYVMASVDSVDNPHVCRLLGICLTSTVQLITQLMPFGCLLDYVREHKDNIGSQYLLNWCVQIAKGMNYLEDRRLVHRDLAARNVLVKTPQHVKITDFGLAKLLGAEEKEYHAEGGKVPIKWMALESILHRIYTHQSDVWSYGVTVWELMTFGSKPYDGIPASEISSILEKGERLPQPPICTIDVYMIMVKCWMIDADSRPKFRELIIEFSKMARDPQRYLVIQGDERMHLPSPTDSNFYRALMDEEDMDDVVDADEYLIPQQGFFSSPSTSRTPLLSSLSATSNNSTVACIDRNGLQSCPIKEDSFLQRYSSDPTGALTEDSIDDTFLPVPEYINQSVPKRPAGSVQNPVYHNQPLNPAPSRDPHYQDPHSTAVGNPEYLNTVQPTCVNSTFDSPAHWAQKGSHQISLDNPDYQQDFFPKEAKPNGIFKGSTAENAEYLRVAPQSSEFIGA
SMILES,"IC50 [1, 4]","IC50 ([2]; Table 2a, D770_N771insNPG)","IC50 [1, 7]","IC50 [2, 8]",IC50 (BA/F3 (insSVD) cells; [5]),"IC50 [3, 6]",IC50 (BA/F3 (insSVD) cells; [9]),"IC50 [3, 10]",IC50 (BA/F3 (insSVD) cells; [11])
"C=CC(=O)N1CCn2nc(-c3ccc4cc[nH]c4c3)c(-c3ccncc3)c2C1 [Example 195, 1-[2-(1H-indol-6-yl)-3-(pyridin-4-yl)-6,7-dihydropyrazolo[1,5-a]pyrazin-5(4H)-yl]prop-2-en-1-one]",0.0825 nM,0.219 nM,–,–,8.9 nM,43.3 nM,–,–,–
"C=CC(=O)N1CCn2nc(-c3ccc(Cl)c(Cl)c3)c(-c3ccncc3)c2C1 [Example 40, 1-[2-(3,4-dichlorophenyl)-3-(pyridin-4-yl)-6,7-dihydropyrazolo[1,5-a]pyrazin-5(4H)-yl]prop-2-en-1-one]",0.0982 nM,0.148 nM,–,–,14.9 nM,56 nM,–,–,–
"C=CC(=O)N1CCn2nc(-c3ccc(F)cc3)c(-c3ccncc3)c2C1 [Example 1, 1-[2-(4-fluorophenyl)-3-(pyridin-4-yl)-6,7-dihydropyrazolo[1,5-a]pyrazin-5(4H)-yl]prop-2-en-1-one]",0.618 nM,0.953 nM,0.618 nM,0.953 nM,34.6 nM,119 nM,34.6 nM,119 nM,–
"C=CC(=O)N1CCn2nc(-c3ccc(F)cc3)c(-c3ccnc(N)c3)c2C1 [Example 10, 1-[3-(2-aminopyridin-4-yl)-2-(4-fluorophenyl)-6,7-dihydropyrazolo[1,5-a]pyrazin-5(4H)-yl]prop-2-en-1-one]",0.849 nM,2.26 nM,0.849 nM,2.26 nM,46.5 nM,346 nM,46.5 nM,346 nM,–
"C=CC(=O)N1CCn2nc(-c3ccc(Cl)cc3F)c(-c3ccncc3)c2C1 [Example 37, 1-[2-(4-chloro-2-fluorophenyl)-3-(pyridin-4-yl)-6,7-dihydropyrazolo[1,5-a]pyrazin-5(4H)-yl]prop-2-en-1-one]",0.258 nM,0.658 nM,–,–,7.14 nM,104 nM,–,–,–
"C=CC(=O)N1C(C)c2c(-c3ccncc3)c(-c3ccc(Cl)cc3F)nn2C[C@@H]1C (single isomer, unassigned; isomer 2) [Example 293]",50.3 nM,96 nM,–,–,–,9980 nM,–,–,380 nM
"CN(C)C/C=C/C(=O)N1Cc2c(-c3ccncc3)c(-c3ccc(F)cc3)nn2C(CC(N)=O)C1 (racemic) [Example 220, 2-[(7RS)-5-[(2E)-4-(dimethylamino)but-2-enoyl]-2-(4-fluorophenyl)-3-(pyridin-4-yl)-4,5,6,7-tetrahydropyrazolo[1,5-a]pyrazin-7-yl]acetamide]",4.15 nM,9.66 nM,–,–,5880 nM,–,–,–,–
"C=CC(=O)N1CCn2nc(-c3ccc4[nH]ccc4c3)c(-c3ccncc3)c2C1 [Example 193, 1-[2-(1H-indol-5-yl)-3-(pyridin-4-yl)-6,7-dihydropyrazolo[1,5-a]pyrazin-5(4H)-yl]prop-2-en-1-one]",0.831 nM,2.85 nM,–,–,45.6 nM,–,–,–,–
"CC1c2c(-c3ccnc4[nH]ccc34)c(-c3ccc(C(F)(F)F)cc3)nn2CCN1C(=O)/C=C/CN(C)C (single isomer, unassigned; isomer 1) [Example 264, (E)-4-(dimethylamino)-1-(4-methyl-3-(1H-pyrrolo[2,3-b]pyridin-4-yl)-2-(4-(trifluoromethyl)phenyl)-6,7-dihydropyrazolo[1,5-a]pyrazin-5(4H)-yl) but-2-en-1-one (isomer 1)]",765 nM,1130 nM,–,–,–,–,–,–,128 nM

# Second part, led by results:
"IC50 [1, 4]","IC50 ([2]; Table 2a, D770_N771insNPG)","IC50 [1, 7]","IC50 [2, 8]",SMILES,IC50 (BA/F3 (insSVD) cells; [5]),"IC50 [3, 6]",IC50 (BA/F3 (insSVD) cells; [9]),"IC50 [3, 10]",IC50 (BA/F3 (insSVD) cells; [11])
0.326 nM,0.407 nM,0.326 nM,0.407 nM,"CC(C)N(C)C/C=C/C(=O)N1CCn2nc(-c3ccc(F)cc3)c(-c3ccnc(NC(=O)C4CC4)c3)c2C1 [Example 6, N-{4-[2-(4-fluorophenyl)-5-{(2E)-4-[methyl(propan-2-yl)amino]but-2-enoyl}-4,5,6,7-tetrahydropyrazolo[1,5-a]pyrazin-3-yl]pyridin-2-yl}cyclopropanecarboxamide]",22.3 nM,207 nM,22.3 nM,207 nM,–
0.451 nM,1.76 nM,0.451 nM,1.76 nM,"CC(C)N(C)C/C=C/C(=O)N1CCn2nc(-c3ccc(F)cc3)c(-c3ccncc3)c2C1 [Example 18, (2E)-1-[2-(4-fluorophenyl)-3-(pyridin-4-yl)-6,7-dihydropyrazolo[1,5-a]pyrazin-5(4H)-yl]-4-[methyl(propan-2-yl)amino]but-2-en-1-one]",143 nM,9980 nM,143 nM,0.217 nM,–
0.382 nM,0.952 nM,–,–,"CN(C)CC#CC(=O)N1CCn2nc(-c3ccc(F)cc3)c(-c3ccncc3)c2C1 [Example 65, 4-(dimethylamino)-1-[2-(4-fluorophenyl)-3-(pyridin-4-yl)-6,7-dihydropyrazolo[1,5-a]pyrazin-5(4H)-yl]but-2-yn-1-one]",15.3 nM,1010 nM,–,–,–
4.61 nM,17.2 nM,–,–,"C=CC(=O)N1Cc2c(-c3ccncc3)c(-c3ccc(F)cc3)nn2C(C(N)=O)C1 (racemic) [Example 204, (7RS)-5-acryloyl-2-(4-fluorophenyl)-3-(pyridin-4-yl)-4,5,6,7-tetrahydropyrazolo[1,5-a]pyrazine-7-carboxamide]",134 nM,–,–,–,–
53.1 nM,82.5 nM,–,–,"CC(C)(C)OC(=O)N1CCCC1C#CC(=O)N1CCn2nc(-c3ccc(F)cc3)c(-c3ccncc3)c2C1 (racemic) [Example 87, tert-butyl(2RS)-2-(3-[2-(4-fluorophenyl)-3-(pyridin-4-yl)-6,7-dihydropyrazolo[1,5-a]pyrazin-5(4H)-yl]-3-oxoprop-1-yn-1-yl) pyrrolidine-1-carboxylate]",1060 nM,–,–,–,–
0.22 nM,0.415 nM,–,–,"CC1CN(C(=O)/C=C/CN(C)C)Cc2c(-c3ccncc3)c(-c3ccc(Cl)cc3F)nn21 (single isomer, unassigned; isomer 1) [Example 287, (2E)-1-[2-(4-chloro-2-fluorophenyl)-7-methyl-3-(pyridin-4-yl)-6,7-dihydropyrazolo[1,5-a]pyrazin-5(4H)-yl]-4-(dimethylamino)but-2-en-1-one (isomer 1)]",37.3 nM,–,–,–,–
3.01 nM,3.83 nM,–,–,"C=CC(=O)N1CCn2nc(-c3cccc(Cl)c3)c(-c3ccncc3)c2C1 [Example 133, 1-[2-(3-chlorophenyl)-3-(pyridin-4-yl)-6,7-dihydropyrazolo[1,5-a]pyrazin-5(4H)-yl]prop-2-en-1-one]",172 nM,–,–,–,–
3.7 nM,25.2 nM,–,–,"CN(C)C/C=C/C(=O)N1CCn2nc(-c3ccc(Cl)cc3F)c(-c3ccnc4[nH]ccc34)c2C1 [Example 103, (2E)-1-[2-(4-chloro-2-fluorophenyl)-3-(1H-pyrrolo[2,3-b]pyridin-4-yl)-6,7-dihydropyrazolo[1,5-a]pyrazin-5(4H)-yl]-4-(dimethylamino)but-2-en-1-one]",122 nM,–,–,–,–

# Source: patent US20260365653A1, “IRREVERSIBLE MUTEGFR INHIBITORS” (Bayer Aktiengesellschaft, priority 2022, published 2026)
